Experimental data taken from patent US20230338391A1, “TREATMENT FOR DEPRESSION” (TAKEDA PHARMACEUTICAL COMPANY LIMITED, priority 2020, published 2023).
Several values for one entry are separate records, joined by “and”; a condition that tells them apart may be missing. Identical values can stand only once. Like-named read-outs stand apart in the source and are kept apart here.

Legend:
Sprague-Dawley rats = test: in vivo; settings: female, rat, 200 mg/kg/day, 14 days
Experimental: (§1) An appropriate amount of methylcellulose (MC) was weighed and mixed with a small amount of warm water for injection. The mixture was then diluted with water for injection to make a 0.5% (w/v) MC solution. The vehicle was used for dosing in the control group. To make a 40 mg/mL suspension of COMPOUND A, an appropriate amount of the test article was weighed and mixed with the vehicle using a planetary centrifugal mixer and the mixture was then diluted with additional vehicle. The 40 mg/mL suspension was used to make 20 and 10 mg/mL suspensions by stepwise dilutions with the vehicle. The dosing suspensions were stored in a refrigerator (actual values: 3.7° C. to 6.1° C., acceptable range: 2° C. to 8° C.) under light-resistant conditions (tight container) and used within 8 days after preparation.
(§2) Males and females in good condition were selected for this study based on examinations within 4 days before the first dosing. Based on their body weights, animals were stratified and allocated randomly to 3 main study groups, each composed of 18 males and 18 females, and 2 satellite groups each composed of 9 males and 9 females for determination of plasma drug and metabolite concentrations. Surplus animals after animal selection were excluded from the study on the day after the animal selection or the day dosing commenced (Day 1).
(§3) The behavior of the high-dose main study and TK satellite groups was video-recorded continuously throughout the dosing period (until the morning on the day of necropsy) under non-GLP conditions. The video-recorded images were kept on a hard drive and were archived as study data. […]
(§4) Each animal was weighed pre-dose using electronic balances (PB3002-S; Mettler-Toledo K.K. and UX4200H; Shimadzu Corporation) on Days 1, 2, 4, 7, 11, and 14 during the dosing period. Body weights were also measured for all animals on the day of necropsy on Days 3, 8, and 15, and these terminal body weight values were also used for calculation of the amount of anesthesia. […]

in vivo = test: in vivo; set-up: species or system Sprague-Dawley rats; settings: both sexes, Sprague-Dawley, rat, po
Experimental: as §1, §2, §3, §4

[1] = 14-day rat neurotoxicology study: toxicokinetics; format: in vivo, Sprague-Dawley rats; settings: for AUC / concentration at 15 day / Cmax: Sprague-Dawley, rat, plasma; for concentration at 15 day: read-out: plasma level at the time of sacrifice
Experimental: as §1, §2
Referring to Tables 4A and 4B, the plasma concentrations of COMPOUND A on Days 2, 7, and 14 were determined in each satellite group. Blood samples (approximately 0.25 mL) were drawn without anesthesia from the subclavian vein of 3 animals of each sex in the satellite groups at each sampling point using sodium-heparinized syringes. Sampling points were as follows: pre-dose and at 1, 2, 4, 8, and 24 hours post-dose. In addition, the plasma concentrations of COMPOUND A before scheduled necropsy were determined in each main study group. The plasma samples (≥0.08 mL) in polypropylene tubes were frozen and stored in a freezer (actual values: −87.0° C. to −83.5° C.) until shipment with parallel quality control (QC) samples prepared by test site 2 and stored under the same conditions as study plasma samples in the test facility. The samples, including the parallel QC samples, were packed with dry ice and shipped to test site 2. The samples were stored frozen at −85.8° C. to −75.5° C. until assay. The plasma concentrations of COMPOUND A and its metabolites, were determined by liquid chromatography/tandem mass spectrometry (LC/MS/MS) and the TK parameters (tmax, Cmax, and AUC24 value) on Days 2, 7, and 14 were calculated for the satellite groups at test site 2.

For CC1=CN2CCS(=O)(=O)N=C2C(c2ccc(OC3CCCCC3)cc2)=N1 [COMPOUND A, 9-[4-(Cyclohexyloxy)phenyl]-7-methyl-3,4-dihydropyrazino[2,1-c][1,2,4]thiadiazine 2,2-dioxide], the “cerebellar Purkinje cell histopathology (HE, Fluoro-Jade)” value (Sprague-Dawley rats) was “necrosis and/or Fluoro-Jade positive staining of Purkinje cells (dendrites, cell bodies, or axons) in 3 rats”, the “tonic convulsions (video recordings)” value (Sprague-Dawley rats) was “tonic convulsions in 2 rats” and the NOAEL at 14 days (in vivo) was 100 mg/kg/day. For the same compound, the “plasma level at the time of sacrifice” value ([1]; Day 15, females at 200 mg/kg/day not observed to convulse, no brain histopathology, individual animals, 200 mg/kg/day) was 192 ng/mL and 968 ng/mL and 114 ng/mL, the “plasma level at the time of sacrifice” value ([1]; Day 15, females at 200 mg/kg/day with lesions visible with Fluoro-Jade only, individual animals, 200 mg/kg/day) was 138 ng/mL and the AUC ([1]; both sexes, oral, 100 mg/kg/day, NOAEL 100 mg/kg/day, read-out: NOAEL exposure cap (AUC) from the 14-day neurotoxicity study in rats) was 17400 ng·h/mL. It also gave a concentration at 15 day ([1]; female, oral, 200 mg/kg/day, Day 15, female at 200 mg/kg/day with lesions visible with both HE and Fluoro-Jade, individual animal) of 935 ng/mL, a concentration at 15 day ([1]; female, oral, 200 mg/kg/day, Day 15, females at 200 mg/kg/day with lesions visible with Fluoro-Jade only, individual animals) of 182 ng/mL and a Cmax ([1]; female, po, 100 mg/kg/day, 100 mg/kg/day oral, female, Day 2) of 1640 ng/mL. It also gave an AUC ([1]; female, po, 100 mg/kg/day, 100 mg/kg/day oral, female, Day 2, read-out: AUC24) of 20500 ng·h/mL, a Cmax ([1]; female, po, 100 mg/kg/day, 100 mg/kg/day oral, female, Day 7) of 1270 ng/mL and an AUC ([1]; female, po, 100 mg/kg/day, 100 mg/kg/day oral, female, Day 7, read-out: AUC24) of 14900 ng·h/mL. For the same compound, the Cmax ([1]; female, po, 100 mg/kg/day, 100 mg/kg/day oral, female, Day 14) was 1670 ng/mL, the AUC ([1]; female, po, 100 mg/kg/day, 100 mg/kg/day oral, female, Day 14, read-out: AUC24) was 17800 ng·h/mL and the Cmax ([1]; female, po, 200 mg/kg/day, 200 mg/kg/day oral, female, Day 2) was 1630 ng/mL. It also gave an AUC ([1]; female, po, 200 mg/kg/day, 200 mg/kg/day oral, female, Day 2, read-out: AUC24) of 18000 ng·h/mL, a Cmax ([1]; female, po, 200 mg/kg/day, 200 mg/kg/day oral, female, Day 7) of 2340 ng/mL and an AUC ([1]; female, po, 200 mg/kg/day, 200 mg/kg/day oral, female, Day 7, read-out: AUC24) of 31800 ng·h/mL. It also gave a Cmax ([1]; female, po, 200 mg/kg/day, 200 mg/kg/day oral, female, Day 14) of 2210 ng/mL, an AUC ([1]; female, po, 200 mg/kg/day, 200 mg/kg/day oral, female, Day 14, read-out: AUC24) of 27600 ng·h/mL and a Cmax ([1]; male, po, 50 mg/kg/day, 50 mg/kg/day oral, male, Day 2) of 836 ng/mL. The AUC ([1]; male, po, 50 mg/kg/day, 50 mg/kg/day oral, male, Day 2, read-out: AUC24) was 9480 ng·h/mL, the Cmax ([1]; male, po, 50 mg/kg/day, 50 mg/kg/day oral, male, Day 7) was 841 ng/mL and the AUC ([1]; male, po, 50 mg/kg/day, 50 mg/kg/day oral, male, Day 7, read-out: AUC24) was 10700 ng·h/mL. For the same compound, the Cmax ([1]; male, po, 50 mg/kg/day, 50 mg/kg/day oral, male, Day 14) was 728 ng/mL, the AUC ([1]; male, po, 50 mg/kg/day, 50 mg/kg/day oral, male, Day 14, read-out: AUC24) was 8750 ng·h/mL and the Cmax ([1]; male, po, 100 mg/kg/day, 100 mg/kg/day oral, male, Day 2) was 1200 ng/mL. It also gave an AUC ([1]; male, po, 100 mg/kg/day, 100 mg/kg/day oral, male, Day 2, read-out: AUC24) of 15000 ng·h/mL, a Cmax ([1]; male, po, 100 mg/kg/day, 100 mg/kg/day oral, male, Day 7) of 917 ng/mL and an AUC ([1]; male, po, 100 mg/kg/day, 100 mg/kg/day oral, male, Day 7, read-out: AUC24) of 13000 ng·h/mL. The Cmax ([1]; male, po, 100 mg/kg/day, 100 mg/kg/day oral, male, Day 14) was 1290 ng/mL and the AUC ([1]; male, po, 100 mg/kg/day, 100 mg/kg/day oral, male, Day 14, read-out: AUC24) was 17000 ng·h/mL.
